Measured values: patent USRE42152E1, “Aromatic-linked polyamine macrocyclic compounds with anti-HIV activity” (Genzyme Corporation, priority 1992, dated 2011)
Converted amounts (≈) assume the structure as drawn. Read-outs that look alike come from different tables or passages of the source.

What was measured:
HIV-1 (HTLV-IIIB) = assay: microbe, parasite or virus in culture; type: cell-based; conditions: MT-4 cells, 100 CCID50, 5 days, MTT
MT-4 cells = assay: Cytotoxicity by MTT method in MT-4 cells; type: cell-based
HIV-1, strain IIIb = assay: microbe, parasite or virus in culture; type: cell-based
Experimental: Adsorption was allowed for 2 hours at 37° C. […] Test compound was added after stimulation and virus adsorption.
(§1) IC50 and IC90 values were calculated by comparing the p24 antigen concentrations in supernatent of treated, infected cells and uncreated, infected cells at days 11 and 14 post infection.

HIV-1, BaL = assay: microbe, parasite or virus in culture; type: cell-based
Experimental: Mononuclear cells were isolated from healthy, HIV-negative donors using Ficoll density separation. Cells (4×10^6/ml) were incubated for 5 days in 48 well plates (Costar) in monocyte medium consisting of RPMII640, supplemented with 20% ECS and 10% human serum. On day 5 non-adherent cells were washed out four times with warm PBS containing 2% human serum.
The monocytotropic strain of HIV-1, BaL, was used for the infection of these monocyte preparations (Pemo et al, 1 Exp Meal, 169, 933, 1989).
Adherent monocytes were exposed to […] of a 1:30 dilution of HIV-1, BaL for 30 minutes subsequently, monocyte medium was added to 1 ml/well. Adsorption was allowed for 24 hours at 37° C. Then, the wells were washed twice in order to remove excess virus and were cultivated in the presence of different drug concentrations. Thus, test compounds were added after adsorption. Every 3 to 4 days post infection the supernatant of the infected cultures was removed and replaced by fresh medium containing the test compound at the particular concentration. The concentration of viral p24 antigen was determined as described above.
as §1

Jurkat cells = assay: Growth of exponentially growing cells (cell numbers); type: cell-based
HIV-1 strain IIIb = assay: Time-of-addition experiment, MT4 cells infected with HIV-1 IIIb, p24 antigen; type: cell-based; conditions: HIV-1 IIIb at high multiplicity, p24 at 29 hours after infection
Experimental: To pinpoint the stage at which the compounds interact with the HIV replicative cycle, a time-of-addition experiment was carried out on MT4 cells infected with HIV-1 strain IIIb at high virus multiplicity to ensure that the virus replicative steps would be synchronised in the whole cell populations. Test compounds wife added 1, 2, 3, . . . 22, 23, 24 hours after infection, and vital p24 antigen production determined 29 hours after infection.
Depending on the stage at which compounds interact and the need for intracellular metabolism, addition of the compounds could be delayed for n hours without loss of activity.

HIV-2 (LAV-2 ROD) = assay: MTT anti-viral screen, MT-4 cells challenged with HIV-2; type: cell-based; conditions: Human immunodeficiency virus 2, MT4, 120 h, read-out: IC50 HIV-2 (ROD)
[1] = Cytotoxicity by MTT method in MT-4 cells; type: cell-based; conditions: human
[2] = tested on: HIV-1 IIIb, RF, HE and NDK strains; assay: microbe, parasite or virus in culture; conditions: Human immunodeficiency virus 1, IIIB, MT4, read-out: IC50 against IIIb, RF, HE and NDK strains
Experimental: The compounds of the invention were tested in a screen by the MTT method (I Vixol Methods […] [1988]). MT-4 cells (2.5×10^4/well) were challenged with HIV-1 (HTLV-IIIB) or HIV-2 (LAV-2 ROD) at a concentration of 100 CCID50 and incubated in the presence of various concentrations of the test compounds, which were added immediately after challenge with the virus. After 5 days culture at 37° C. in a CO2 incubator, the number of viable cells was assessed by the MTT (tetrazolium) method. […] The potential therapeutic usefulness was assessed by calculating a Selectivity Index (SI) corresponding to the ratio of CC50 to IC50.

[3] = tested on: low-passage primary clinical isolates of HIV-1 (K31, D370, K6/2); conditions: primary T4 cells; isolates K31 Zaire, D370 California, K6/2 Germany
Experimental: Primary T4 lymphocytes were purified from human spleens obtained from healthy donors by using a commercial kit (“Lympho-Kwik”) which combines reaction of cells with specific monoclonal antibodies and density gradient centrifugation to separate the cells. […] Cells were stimulated with 2 μg/ml PHA for 24 hours. Then they were spun down and infected with HIV-1, strain IIIb, by suspending the cells 10-fold concentrated in virus solution. Adsorption was allowed for 2 hours at 37° C. The inoculum was removed by centrifugation and the cells were re-suspended at their original concentration in fresh culture medium containing IL-2 (40 IE/ml). Test compound was added after stimulation and virus adsorption. Every 3 to 4 days post infection half of the supernatant of the infected cultures was removed and replaced by fresh medium containing the test compound at the particular concentration, The concentration of vital p24 antigen was determined in the supernatent by means of a commercial ELISA kit (Coulter) and served as a parameter for virus production.

[4] = tested on: HIV uncoating (or fusion); assay: Sensitivity of viral RNA from freshly infected MT4 cells to RNase degradation (uncoating); type: cell-based; conditions: radiolabelled viral particles, RNA harvested 4 hours after infection
Text: It was reasoned that if tincoating (fusion) was hampered, the viral capsid (or envelope) proteins would remain associated with the viral RNA genome and thus the RNA should be protected against RNase attack.

gp120/41 mediated fusion = conditions: HIV-1 IIIb infected HUT78 cells with MOLT4 cells
Text: Syncytium formation between chronically infected cells and uninfected cells reflects the gp120/41 mediated fusion process of vital entry.

HUT78 cells = conditions: concentrations below 300 μg/ml; cell numbers 2, 3 and 4 days after seeding
[5] = Lymphocytes, HIV-1 IIIb, p24, day 11 post infection
[6] = Lymphocytes, HIV-1 IIIb, p24, day 14 post infection
[7] = Monocytes, HIV-1 BaL, p24, day 11 post infection
[8] = Monocytes, HIV-1 BaL, p24, day 14 post infection
[9] = concentrations below 300 μg/ml, cell numbers 2, 3 and 4 days after seeding

Structure (SMILES): Cc1cn([C@H]2C[C@H](N=[N+]=[N-])[C@@H](CO)O2)c(=O)[nH]c1=O [AZT, reference compound]
- IC50 HIV-1 (IIIB) (HIV-1 (HTLV-IIIB)): <8 ng/mL
- CC50 (HIV-1 (IIIB)) (MT-4 cells): >1000 ng/mL
- IC50 day 11 (HIV-1, strain IIIb; [5]): 0.45 ng/mL (≈ 1.68 nM)
- IC90 day 11 (HIV-1, strain IIIb; [5]): 2.2 ng/mL (≈ 8.23 nM)
- IC50 day 14 (HIV-1, strain IIIb; [6]): 0.43 ng/mL (≈ 1.61 nM)
- IC90 day 14 (HIV-1, strain IIIb; [6]): 1.1 ng/mL (≈ 4.12 nM)
- IC50 day 11 (HIV-1, BaL; [7]): 1 ng/mL (≈ 3.74 nM)
- IC90 day 11 (HIV-1, BaL; [7]): 1.5 ng/mL (≈ 5.61 nM)
- IC50 day 14 (HIV-1, BaL; [8]): 1 ng/mL (≈ 3.74 nM)
- IC90 day 14 (HIV-1, BaL; [8]): 1.7 ng/mL (≈ 6.36 nM)
- TC50 (Jurkat cells; Jurkat): 184000 ng/mL (≈ 689000 nM)
- n, hours addition could be delayed after infection without loss of activity (HIV-1 strain IIIb): ~4 h
- TC50 (MT4 cells; MT4): 23000 ng/mL (≈ 86100 nM)
- TC50 (MOLT4 cells; MOLT4): 37000 ng/mL (≈ 138000 nM)
- TC50 (U937 cell line; U937): 5000 ng/mL (≈ 18700 nM)

Structure (SMILES): c1cc(CN2CCCNCCNCCCNCC2)ccc1CN1CCCNCCNCCCNCC1 [Compound B, 1,1′-[1,4-phenylenebis(methylene)]bis-1,4,8,11-tetraazacyclotetradecane]
- IC50 (HIV-1 (HTLV-IIIB); Human immunodeficiency virus 1, IIIB, MT4, 120 h, read-out: IC50 HIV-1 (IIIB)): 6 ng/mL (≈ 11.9 nM)
- IC50 (HIV-2 (LAV-2 ROD)): < 10 ng/mL
- CC50 at 5 days ([1]; CC50 (HIV-1 (IIIB))): > 500000 ng/mL
- CC50 at 5 days ([1]; CC50 (HIV-2 (ROD))): > 500000 ng/mL
- IC50 [2]: 2 to 5 ng/mL (≈ 3.98 to 9.94 nM)
- IC90 (HIV-1, strain IIIb; Human immunodeficiency virus 1, IIIB, Lymphocyte, primary T4 lymphocytes, stated for both primary cell types, read-out: IC90 values): 1 to 2 ng/mL (≈ 1.99 to 3.98 nM)
- IC50 (HIV-1, strain IIIb; Human immunodeficiency virus 1, Lymphocyte, 264 h, Lymphocytes, HIV-1 IIIb, p24, day 11 post infection, read-out: IC50 day 11): < 1 ng/mL
- IC90 (HIV-1, strain IIIb; Human immunodeficiency virus 1, Lymphocyte, 264 h, Lymphocytes, HIV-1 IIIb, p24, day 11 post infection, read-out: IC90 day 11): < 1 ng/mL
- IC50 (HIV-1, strain IIIb; Human immunodeficiency virus 1, Lymphocyte, 336 h, Lymphocytes, HIV-1 IIIb, p24, day 14 post infection, read-out: IC50 day 14): < 1 ng/mL
- IC90 (HIV-1, strain IIIb; Human immunodeficiency virus 1, Lymphocyte, 336 h, Lymphocytes, HIV-1 IIIb, p24, day 14 post infection, read-out: IC90 day 14): 1 ng/mL (≈ 1.99 nM)
- IC90 (HIV-1, BaL; Human immunodeficiency virus 1, BAL, Monocyte, primary monocytes, stated for both primary cell types, read-out: IC90 values): 1 to 2 ng/mL (≈ 1.99 to 3.98 nM)
- IC50 (HIV-1, BaL; Human immunodeficiency virus 1, Monocyte, 264 h, Monocytes, HIV-1 BaL, p24, day 11 post infection, read-out: IC50 day 11): < 1 ng/mL
- IC90 (HIV-1, BaL; Human immunodeficiency virus 1, Monocyte, 264 h, Monocytes, HIV-1 BaL, p24, day 11 post infection, read-out: IC90 day 11): 1.9 ng/mL (≈ 3.78 nM)
- IC50 (HIV-1, BaL; Human immunodeficiency virus 1, Monocyte, 336 h, Monocytes, HIV-1 BaL, p24, day 14 post infection, read-out: IC50 day 14): 1.1 ng/mL (≈ 2.19 nM)
- IC90 (HIV-1, BaL; Human immunodeficiency virus 1, Monocyte, 336 h, Monocytes, HIV-1 BaL, p24, day 14 post infection, read-out: IC90 day 14): 2.1 ng/mL (≈ 4.18 nM)
- inhibition of viral replication [3]: strong inhibitor
- inhibition of cell growth (Jurkat cells; [9]): did not inhibit growth
- resistance of viral RNA to degradation by RNase [4]: showed resistance to degradation by RNaseA
- concentrations required for inhibition of fusion (syncytium formation) (gp120/41 mediated fusion): approximately 1 μg/ml
- inhibition of cell growth (MT4 cells; [9]): did not inhibit growth
- inhibition of cell growth (MOLT4 cells; [9]): did not inhibit growth
- inhibition of cell growth (HUT78 cells): did not inhibit growth
- inhibition of cell growth (U937 cell line; [9]): did not inhibit growth

Structure (SMILES): CC(C)(C)NC(=O)[C@@H]1C[C@@H]2CCCC[C@@H]2CN1C[C@@H](O)[C@H](Cc1ccccc1)NC(=O)[C@H](CC(N)=O)NC(=O)c1ccc2ccccc2n1 [Ro31-8959]
- n, hours addition could be delayed after infection without loss of activity (HIV-1 strain IIIb): 12 h
- resistance of viral RNA to degradation by RNase [4]: did not show this increased resistance
